Drawing on US20240391965A1, “STAPLED ANTIMICROBIAL PEPTIDES (STAMPS) AND USES THEREOF” (Lytica Therapeutics, Inc., priority 2021, published 2024), this text covers IC50 for twelve compounds.

The structures appear in SMILES notation. Values after ≈ are worked out from the molar mass of the structure shown. Starred links: 1 amine or outer side, 2 acyl side, 3 side chain; linkers in the order of their positions; H or OH if unused. Positions of bridges follow the written chain, without caps; N, C: chain ends. Residues, ends and D or L forms follow the SMILES beside them. 2,2'Bipyridine(5,5'-diCH2) = c1cc(-c2ccc(C[*:2])cn2)ncc1C[*:1]; Biphenyl(4,4'-CH2)2 = c1cc(-c2ccc(C[*:2])cc2)ccc1C[*:1]; Naphthalene(2,6-diCH2) = c1cc2cc(C[*:2])ccc2cc1C[*:1]; mXylylene = c1cc(C[*:1])cc(C[*:2])c1; pXylylene = c1cc(C[*:2])ccc1C[*:1]; X1 = C(=CC[*:2])C[*:1]

One data set can be described thus: 48 hours cytotoxicity assay (CellTiter-Glo), liver toxicity. In kind it is cell-based, human.
Details: not given
The text has this:
In some embodiments, a peptide provided herein has hepatic toxicity that is at least 10% (e.g., at least 15%, at least 20%, at least 25%, at least 30%, at least 35%, at least 40%, at least 45%, at least 50%, at least 55%, at least 60%, at least 65%, at least 65%, at least 70%, at least 75%, at least 80%, at least 85%, at least 90%, at least 95%, at least 99%) lower than the hepatic toxicity of the reference. The hepatic toxicity of a peptide can be measured in vitro using a human liver cells (e.g., HepG2) toxicity assay.
Cell culture: RPTEC were maintained in MEM media supplemented with growth factors. HEPG2 cell line was maintained in Eagle's Minimum Essential Medium (EMEM) supplemented with fetal bovine serum to a final concentration of 10%.
48 hours cytotoxicity assay: Cells were plated in a 96-well format, and after 4 hour incubation to allow attachment, serial dilutions of StAMPs from a 5 mg/mL water stock, or vehicle, were then added to the cells in a final volume of 100 μl. After incubating at 37° C. for 48 hours, 100 μl of CellTiter-Glo® reagent was added to the cells, and the plates were incubated 10 minutes at room temperature. Luminescence was then measured on a microplate reader.
Renal toxicity was measured after 90 minutes of incubation, while liver toxicity was measured after 48 hours of incubation with StAMPs. N/A=not tested.
As for `CC[C@H](C)[C@H](NC(=O)CN)C(=O)N[C@@H](Cc1ccccc1)C(=O)N[C@@H](CO)C(=O)N[C@@H](CCCCN)C(=O)N[C@@H](CC(C)C)C(=O)N[C@@H](C)C(=O)NCC(=O)N[C@@H](CCCCN)C(=O)N[C@@H](CCCCN)C(=O)N[C@H](C(=O)N[C@@H](CCCCN)C(=O)N[C@@H](CC(N)=O)C(=O)N[C@H]1CSCc2ccc(cc2)-c2ccc(cc2)CSC[C@@H](C(N)=O)NC(=O)[C@H](CCCCN)NC(=O)[C@H](CC(C)C)NC(=O)CNC(=O)[C@H](CO)NC(=O)[C@H]([C@@H](C)CC)NC(=O)[C@H](CC(C)C)NC1=O)[C@@H](C)CC` [compound 86] (H-GIFSKLAGKKIKNCLISGLKC-NH2; linker 14-21 via Biphenyl(4,4'-CH2)2; N-terminus assumed), the IC50 was found to be 9 µg/mL (≈ 3.75 µM). Still for that read-out and setting: then `CC[C@H](C)[C@H](NC(=O)CN)C(=O)N[C@@H](Cc1ccccc1)C(=O)N[C@@H](CO)C(=O)N[C@@H](CCCCN)C(=O)N[C@@H](CC(C)C)C(=O)N[C@@H](C)C(=O)NCC(=O)N[C@@H](CCCCN)C(=O)N[C@@H](CCCCN)C(=O)N[C@H]1CSCc2ccc(cc2)-c2ccc(cc2)CSC[C@@H](C(=O)N[C@@H](CC(C)C)C(=O)N[C@@H](CCCCN)C(=O)NCC(N)=O)NC(=O)[C@H](CO)NC(=O)[C@H]([C@@H](C)CC)NC(=O)[C@H](CC(C)C)NC(=O)[C@H](CC(C)C)NC(=O)[C@H](CC(N)=O)NC(=O)[C@H](CCCCN)NC1=O` [compound 76] (H-GIFSKLAGKKCKNLLISCLKG-NH2; linker 11-18 via Biphenyl(4,4'-CH2)2; N-terminus assumed), with 23 µg/mL (≈ 9.59 µM). As to `CC[C@H](C)[C@H](NC(=O)CN)C(=O)N[C@@H](Cc1ccccc1)C(=O)N[C@@H](CO)C(=O)N[C@@H](CCCCN)C(=O)N[C@@H](CC(C)C)C(=O)N[C@@H](C)C(=O)NCC(=O)N[C@H]1CSCc2ccc(cc2)-c2ccc(cc2)CSC[C@@H](C(=O)N[C@@H](CO)C(=O)NCC(=O)N[C@@H](CC(C)C)C(=O)N[C@@H](CCCCN)C(=O)NCC(N)=O)NC(=O)[C@H](CC(C)C)NC(=O)[C@H](CC(C)C)NC(=O)[C@H](CC(N)=O)NC(=O)[C@H](CCCCN)NC(=O)[C@H]([C@@H](C)CC)NC(=O)[C@H](CCCCN)NC1=O` [compound 70] (H-GIFSKLAGCKIKNLLCSGLKG-NH2; linker 9-16 via Biphenyl(4,4'-CH2)2; N-terminus assumed), the IC50 came to 23 µg/mL (≈ 9.88 µM). On the same count and under the same terms, then `CC[C@H](C)[C@H](NC(=O)CN)C(=O)N[C@@H](Cc1ccccc1)C(=O)N[C@@H](CO)C(=O)N[C@@H](CCCCN)C(=O)N[C@@H](CC(C)C)C(=O)N[C@@H](C)C(=O)NCC(=O)N[C@@H](CCCCN)C(=O)N[C@@H](CCCCN)C(=O)N[C@H](C(=O)N[C@H]1CSCc2ccc(cc2)-c2ccc(cc2)CSC[C@@H](C(=O)N[C@@H](CCCCN)C(=O)NCC(N)=O)NC(=O)CNC(=O)[C@H](CO)NC(=O)[C@H]([C@@H](C)CC)NC(=O)[C@H](CC(C)C)NC(=O)[C@H](CC(C)C)NC(=O)[C@H](CC(N)=O)NC1=O)[C@@H](C)CC` [compound 79] (H-GIFSKLAGKKICNLLISGCKG-NH2; linker 12-19 via Biphenyl(4,4'-CH2)2; N-terminus assumed), with 50 µg/mL (≈ 21.5 µM); and `CC[C@H](C)[C@H](NC(=O)[C@H](CC(C)C)NC(=O)[C@H](CC(C)C)NC(=O)[C@H](CC(N)=O)NC(=O)[C@H](CCCCN)NC(=O)[C@@H](NC(=O)[C@H](CCCCN)NC(=O)[C@H](CCCCN)NC(=O)CNC(=O)[C@H](C)NC(=O)[C@@H]1CSCC=CCSC[C@H](NC(=O)CN)C(=O)N[C@@H](Cc2ccccc2)C(=O)N[C@@H](CO)C(=O)N[C@@H](CCCCN)C(=O)N1)[C@@H](C)CC)C(=O)N[C@@H](CO)C(=O)NCC(=O)N[C@@H](CC(C)C)C(=O)N[C@@H](CCCCN)C(=O)NCC(N)=O` [compound 48] (H-GCFSKCAGKKIKNLLISGLKG-NH2; linker 2-6 via X1; N-terminus assumed), with greater than 800 µg/mL. Regarding `CC[C@H](C)[C@H](NC(=O)CN)C(=O)N[C@@H](Cc1ccccc1)C(=O)N[C@@H](CO)C(=O)N[C@H]1CSCc2ccc(cc2)-c2ccc(cc2)CSC[C@@H](C(=O)N[C@@H](CC(N)=O)C(=O)N[C@@H](CC(C)C)C(=O)N[C@@H](CC(C)C)C(=O)N[C@H](C(=O)N[C@@H](CO)C(=O)NCC(=O)N[C@@H](CC(C)C)C(=O)N[C@@H](CCCCN)C(=O)NCC(N)=O)[C@@H](C)CC)NC(=O)[C@H]([C@@H](C)CC)NC(=O)[C@H](CCCCN)NC(=O)[C@H](CCCCN)NC(=O)CNC(=O)[C@H](C)NC(=O)[C@H](CC(C)C)NC1=O` [compound 61] (H-GIFSCLAGKKICNLLISGLKG-NH2; linker 5-12 via Biphenyl(4,4'-CH2)2; N-terminus assumed), the IC50 is greater than 200 µg/mL. On the same count and under the same terms, then `CC[C@H](C)[C@H](NC(=O)[C@H](CC(C)C)NC(=O)[C@H](CC(C)C)NC(=O)[C@H](CC(N)=O)NC(=O)[C@H](CCCCN)NC(=O)[C@@H](NC(=O)[C@H](CCCCN)NC(=O)[C@H](CCCCN)NC(=O)[C@@H]1CSCc2ccc(cc2)-c2ccc(cc2)CSC[C@H](N)C(=O)N[C@@H]([C@@H](C)CC)C(=O)N[C@@H](Cc2ccccc2)C(=O)N[C@@H](CO)C(=O)N[C@@H](CCCCN)C(=O)N[C@@H](CC(C)C)C(=O)N[C@@H](C)C(=O)N1)[C@@H](C)CC)C(=O)N[C@@H](CO)C(=O)NCC(=O)N[C@@H](CC(C)C)C(=O)N[C@@H](CCCCN)C(=O)NCC(N)=O` [compound 51] (H-CIFSKLACKKIKNLLISGLKG-NH2; linker 1-8 via Biphenyl(4,4'-CH2)2; N-terminus assumed), with 102 µg/mL (≈ 41.5 µM); and `CC[C@H](C)[C@H](NC(=O)[C@H](CC(C)C)NC(=O)[C@H](CC(C)C)NC(=O)[C@H](CC(N)=O)NC(=O)[C@H](CCCCN)NC(=O)[C@@H](NC(=O)[C@H](CCCCN)NC(=O)[C@H](CCCCN)NC(=O)CNC(=O)[C@H](C)NC(=O)[C@@H]1CSCc2cccc(c2)CSC[C@H](NC(=O)CN)C(=O)N[C@@H](Cc2ccccc2)C(=O)N[C@@H](CO)C(=O)N[C@@H](CCCCN)C(=O)N1)[C@@H](C)CC)C(=O)N[C@@H](CO)C(=O)NCC(=O)N[C@@H](CC(C)C)C(=O)N[C@@H](CCCCN)C(=O)NCC(N)=O` [compound 46] (H-GCFSKCAGKKIKNLLISGLKG-NH2; linker 2-6 via mXylylene; N-terminus assumed), with 201 µg/mL (≈ 88.7 µM). Still for that read-out and setting: then `CC[C@H](C)[C@H](NC(=O)[C@H](CC(C)C)NC(=O)[C@H](CC(C)C)NC(=O)[C@H](CC(N)=O)NC(=O)[C@H](CCCCN)NC(=O)[C@@H](NC(=O)[C@H](CCCCN)NC(=O)[C@H](CCCCN)NC(=O)CNC(=O)[C@H](C)NC(=O)[C@@H]1CSCc2ccc(cc2)CSC[C@H](NC(=O)CN)C(=O)N[C@@H](Cc2ccccc2)C(=O)N[C@@H](CO)C(=O)N[C@@H](CCCCN)C(=O)N1)[C@@H](C)CC)C(=O)N[C@@H](CO)C(=O)NCC(=O)N[C@@H](CC(C)C)C(=O)N[C@@H](CCCCN)C(=O)NCC(N)=O` [compound 47] (H-GCFSKCAGKKIKNLLISGLKG-NH2; linker 2-6 via pXylylene; N-terminus assumed), with 402 µg/mL (≈ 177 µM).

The same data set, now with this note: 48 hours of incubation, CellTiter-Glo; read-out: Inhibitory Concentration at 50% Cytotoxicity (IC50) Human Liver Cells (HepG2).
`CC[C@H](C)[C@H](NC(=O)CN)C(=O)N[C@@H](Cc1ccccc1)C(=O)N[C@@H](CO)C(=O)N[C@@H](CCCCN)C(=O)N[C@H]1CSCc2ccc(nc2)-c2ccc(cn2)CSC[C@@H](C(=O)N[C@@H](CC(C)C)C(=O)N[C@@H](CC(C)C)C(=O)N[C@H](C(=O)N[C@@H](CO)C(=O)NCC(=O)N[C@@H](CC(C)C)C(=O)N[C@@H](CCCCN)C(=O)NCC(N)=O)[C@@H](C)CC)NC(=O)[C@H](CCCCN)NC(=O)[C@H]([C@@H](C)CC)NC(=O)[C@H](CCCCN)NC(=O)[C@H](CCCCN)NC(=O)CNC(=O)[C@H](C)NC1=O` [compound 63] (H-GIFSKCAGKKIKCLLISGLKG-NH2; linker 6-13 via 2,2'Bipyridine(5,5'-diCH2)): the IC50 amounted to 44 µg/mL (≈ 18.8 µM).

Take `CC[C@H](C)[C@H](NC(=O)CN)C(=O)N[C@@H](Cc1ccccc1)C(=O)N[C@@H](CO)C(=O)N[C@H]1CSCc2ccc(nc2)-c2ccc(cn2)CSC[C@@H](C(=O)N[C@@H](CC(N)=O)C(=O)N[C@@H](CC(C)C)C(=O)N[C@@H](CC(C)C)C(=O)N[C@H](C(=O)N[C@@H](CO)C(=O)NCC(=O)N[C@@H](CC(C)C)C(=O)N[C@@H](CCCCN)C(=O)NCC(N)=O)[C@@H](C)CC)NC(=O)[C@H]([C@@H](C)CC)NC(=O)[C@H](CCCCN)NC(=O)[C@H](CCCCN)NC(=O)CNC(=O)[C@H](C)NC(=O)[C@H](CC(C)C)NC1=O` [compound 60] (H-GIFSCLAGKKICNLLISGLKG-NH2; linker 5-12 via 2,2'Bipyridine(5,5'-diCH2)): the IC50 is 29 µg/mL (≈ 12.5 µM). Same read-out and setting: then `CC[C@H](C)[C@H](NC(=O)CN)C(=O)N[C@@H](Cc1ccccc1)C(=O)N[C@@H](CO)C(=O)N[C@H]1CSCc2ccc3cc(ccc3c2)CSC[C@@H](C(=O)N[C@@H](CC(N)=O)C(=O)N[C@@H](CC(C)C)C(=O)N[C@@H](CC(C)C)C(=O)N[C@H](C(=O)N[C@@H](CO)C(=O)NCC(=O)N[C@@H](CC(C)C)C(=O)N[C@@H](CCCCN)C(=O)NCC(N)=O)[C@@H](C)CC)NC(=O)[C@H]([C@@H](C)CC)NC(=O)[C@H](CCCCN)NC(=O)[C@H](CCCCN)NC(=O)CNC(=O)[C@H](C)NC(=O)[C@H](CC(C)C)NC1=O` [compound 62] (H-GIFSCLAGKKICNLLISGLKG-NH2; linker 5-12 via Naphthalene(2,6-diCH2)), with 81 µg/mL (≈ 35.4 µM).
